Measurements as given in paper PMC11672637, “7-O-Carboxylic Acid-Substituted 3-O-Alkyl Difluoroquercetin; An Aztreonam-Potentiating Agent Against Carbapenemase-Producing Pseudomonas aeruginosa Through Simultaneous Inhibition of Metallo-β-Lactamase and Efflux Pump” (Antibiotics, 2024).

What was measured:
Assay in all cases: MIC / checkerboard with ATM
Set-up in all cases: key to Susceptibility category: S: susceptible; I: intermediate; R: resistant
PA-003, blaVIM = assay type: cell-based, P. aeruginosa; details: PA-003, Table S2; for MIC: Pseudomonas aeruginosa, read-out: MIC value
PA-016, blaIMP = assay type: cell-based, P. aeruginosa; details: PA-016; Table S2
PA-038, blaNDM = assay type: cell-based, P. aeruginosa; details: PA-038; Table S2
PA-014, blaGES = assay type: cell-based, P. aeruginosa; details: PA-014, Table S2
PA-021, blaIMP = assay type: cell-based, P. aeruginosa; details: PA-021, Table S2
PA-002, blaIMP = assay type: cell-based, P. aeruginosa; details: PA-002, Table S2; for MIC: Pseudomonas aeruginosa, read-out: MIC value
PA-034, blaNDM = assay type: cell-based, P. aeruginosa; details: PA-034; Table S2
PA-039, blaNDM = assay type: cell-based, P. aeruginosa; details: PA-039, Table S2; for MIC: Pseudomonas aeruginosa, read-out: MIC value
PA-009, blaGES = assay type: cell-based, P. aeruginosa; details: PA-009, Table S2
PA-029, blaIMP = assay type: cell-based, P. aeruginosa; details: PA-029; Table S2
PA-042, blaIMP/NDM = assay type: cell-based, P. aeruginosa; details: PA-042, Table S2; for MIC: Pseudomonas aeruginosa, read-out: MIC value
PA-044, blaNDM = assay type: cell-based, P. aeruginosa; details: PA-044; Table S2
PA-033, blaNDM = assay type: cell-based, P. aeruginosa; details: PA-033; Table S2
PA-036, blaNDM = assay type: cell-based, P. aeruginosa; details: PA-036; Table S2
PA-027, blaIMP = assay type: cell-based, P. aeruginosa; details: PA-027; Table S2
PA-028, blaNDM = assay type: cell-based, P. aeruginosa; details: PA-028; Table S2
PA-025, blaNDM = assay type: cell-based, P. aeruginosa; details: PA-025; Table S2
PA-031, blaNDM = assay type: cell-based, P. aeruginosa; details: PA-031; Table S2
PA-032, blaIMP = assay type: cell-based, P. aeruginosa; details: PA-032, Table S2; for MIC: Pseudomonas aeruginosa, read-out: MIC value
PA-030, blaIMP = assay type: cell-based, P. aeruginosa; details: PA-030; Table S2
PA-041, blaNDM = assay type: cell-based, P. aeruginosa; details: PA-041, Table S2
PA-040, blaNDM = assay type: cell-based, P. aeruginosa; details: PA-040; Table S2
PA-035, blaGES = assay type: cell-based, P. aeruginosa; details: PA-035, Table S2; for MIC: Pseudomonas aeruginosa, read-out: MIC value
PA-026, blaNDM = assay type: cell-based, P. aeruginosa; details: PA-026, Table S2; for MIC: Pseudomonas aeruginosa, read-out: MIC value
PA-037, blaIMP/NDM = assay type: cell-based, P. aeruginosa; details: PA-037; Table S2
[1] = test system: NDM-1-Producing P. aeruginosa (PA-017, blaNDM); assay type: cell-based; details: PA-017; Table S2
[2] = Pseudomonas aeruginosa, read-out: MIC value

| SMILES | Susceptibility category (PA-003, blaVIM) | Susceptibility category (PA-016, blaIMP) | Susceptibility category (PA-038, blaNDM) | Susceptibility category (PA-014, blaGES) | Susceptibility category (PA-021, blaIMP) | Susceptibility category (PA-002, blaIMP) | Susceptibility category (PA-034, blaNDM) | Susceptibility category (PA-039, blaNDM) | Susceptibility category (PA-009, blaGES) | Susceptibility category (PA-029, blaIMP) | Susceptibility category (PA-042, blaIMP/NDM) | Susceptibility category (PA-044, blaNDM) | Susceptibility category (PA-033, blaNDM) | Susceptibility category (PA-036, blaNDM) | Susceptibility category (PA-027, blaIMP) | Susceptibility category (PA-028, blaNDM) | Susceptibility category (PA-025, blaNDM) | Susceptibility category (PA-031, blaNDM) | Susceptibility category (PA-032, blaIMP) | Susceptibility category (PA-030, blaIMP) | other results |
| --- | --- | --- | --- | --- | --- | --- | --- | --- | --- | --- | --- | --- | --- | --- | --- | --- | --- | --- | --- | --- | --- |
| CNC(C)C1CCC(N)C(OC2C(N)CC(N)C(OC3OCC(C)(O)C(NC)C3O)C2O)O1 (centres unmarked) [GEN, gentamicin, reference compound] | R | R | R | R | R | R | R | S | I | R | R | R | R | R | R | R | R | R | S | R | MIC (PA-003, blaVIM): > 8 µg/mL; MIC (PA-002, blaIMP): > 8 µg/mL; MIC (PA-039, blaNDM): ≤ 2 µg/mL; Susceptibility category (PA-041, blaNDM): S; MIC (PA-041, blaNDM; [2]): ≤ 2 µg/mL; Susceptibility category (PA-040, blaNDM): R; Susceptibility category (PA-035, blaGES): R; Susceptibility category (PA-026, blaNDM): S; MIC (PA-026, blaNDM): ≤ 2 µg/mL; Susceptibility category (PA-037, blaIMP/NDM): R; Susceptibility category [1]: R |
| CC(C)(O/N=C(\C(=O)N[C@@H]1C(=O)N2C(C(=O)[O-])=C(C[n+]3ccccc3)CS[C@H]12)c1csc(N)n1)C(=O)O [CAZ, ceftazidime, reference compound] | S | R | R | R | R | R | R | R | R | R | R | R | R | R | R | R | R | R | S | R | MIC (PA-003, blaVIM): 4 µg/mL; MIC (PA-002, blaIMP): > 16 µg/mL; MIC (PA-042, blaIMP/NDM): > 16 µg/mL; MIC (PA-032, blaIMP): 8 µg/mL; Susceptibility category (PA-041, blaNDM): R; Susceptibility category (PA-040, blaNDM): R; Susceptibility category (PA-035, blaGES): R; MIC (PA-035, blaGES): > 16 µg/mL; Susceptibility category (PA-026, blaNDM): R; Susceptibility category (PA-037, blaIMP/NDM): R; Susceptibility category [1]: R |
| C[C@@H](O)[C@H]1C(=O)N2C(C(=O)O)=C(SCCN=CN)C[C@H]12 [IPM, imipenem, reference compound] | R | R | R | R | R | R | R | R | R | R | R | R | R | R | R | R | R | R | R | R | MIC (PA-003, blaVIM): > 8 µg/mL; MIC (PA-002, blaIMP): > 8 µg/mL; MIC (PA-042, blaIMP/NDM): > 8 µg/mL; Susceptibility category (PA-041, blaNDM): R; Susceptibility category (PA-040, blaNDM): R; Susceptibility category (PA-035, blaGES): R; MIC (PA-035, blaGES): 8 µg/mL; Susceptibility category (PA-026, blaNDM): I; MIC (PA-026, blaNDM): 4 µg/mL; Susceptibility category (PA-037, blaIMP/NDM): R; Susceptibility category [1]: R |
| NCC[C@H](O)C(=O)N[C@@H]1C[C@H](N)[C@@H](O[C@H]2O[C@H](CN)[C@@H](O)[C@H](O)[C@H]2O)[C@H](O)[C@H]1O[C@H]1O[C@H](CO)[C@@H](O)[C@H](N)[C@H]1O [AMK, amikacin, reference compound] | R | R | R | S | S | R | R | S | S | R | R | R | R | R | R | R | R | R | S | R | MIC (PA-014, blaGES; [2]): 8 µg/mL; MIC (PA-021, blaIMP; [2]): 16 µg/mL; MIC (PA-039, blaNDM): ≤ 4 µg/mL; MIC (PA-009, blaGES; [2]): 16 µg/mL; Susceptibility category (PA-041, blaNDM): R; Susceptibility category (PA-040, blaNDM): R; Susceptibility category (PA-035, blaGES): S; MIC (PA-035, blaGES): ≤ 4 µg/mL; Susceptibility category (PA-026, blaNDM): S; Susceptibility category (PA-037, blaIMP/NDM): R; Susceptibility category [1]: R |
| C[C@@H](O)[C@H]1C(=O)N2C(C(=O)O)=C(S[C@@H]3CN[C@H](C(=O)N(C)C)C3)[C@H](C)[C@H]12 [MEM, meropenem, reference compound] | R | R | R | R | R | R | R | R | R | R | R | R | R | R | R | R | R | R | R | R | MIC (PA-003, blaVIM): 16 µg/mL; MIC (PA-002, blaIMP): > 32 µg/mL; MIC (PA-032, blaIMP): 32 µg/mL; Susceptibility category (PA-041, blaNDM): R; Susceptibility category (PA-040, blaNDM): R; Susceptibility category (PA-035, blaGES): R; MIC (PA-035, blaGES): 16 µg/mL; Susceptibility category (PA-026, blaNDM): S; MIC (PA-026, blaNDM): ≤ 0.25 µg/mL; Susceptibility category (PA-037, blaIMP/NDM): R; Susceptibility category [1]: R |
